In brackets after ≈: the same amount, converted by molar mass.
Assays:
Fusarium solani [1] = assay: Antifungal activity against Fusarium solani at 100 ug/disk after 48 hrs by agar disc-diffusion method; type: functional; settings: read-out: IZ
Fusarium solani [2] = assay: Antifungal activity against Fusarium solani at 200 ug/disk after 48 hrs by agar disc-diffusion method; type: functional; settings: read-out: IZ
Curvularia lunata [3] = assay: Antifungal activity against Curvularia lunata at 100 ug/disk after 48 hrs by agar disc-diffusion method; type: functional; settings: read-out: IZ
Curvularia lunata [4] = assay: Antifungal activity against Curvularia lunata at 200 ug/disk after 48 hrs by agar disc-diffusion method; type: functional; settings: read-out: IZ
Aspergillus niger [5] = assay: Antifungal activity against Aspergillus niger at 100 ug/disk after 48 hrs by agar disc-diffusion method; type: functional; settings: read-out: IZ
Aspergillus niger [6] = assay: Antifungal activity against Aspergillus niger at 200 ug/disk after 48 hrs by agar disc-diffusion method; type: functional; settings: read-out: IZ
Fusarium solani [7] = assay: Antifungal activity against Fusarium solani after 48 hrs by microdilution susceptibility method; type: functional
Curvularia lunata [8] = assay: Antifungal activity against Curvularia lunata after 48 hrs by microdilution susceptibility method; type: functional
Aspergillus niger [9] = assay: Antifungal activity against Aspergillus niger after 48 hrs by microdilution susceptibility method; type: functional
Staphylococcus aureus [10] = assay: Antibacterial activity against Staphylococcus aureus at 100 ug/disk after 24 hrs by agar disc-diffusion method; type: functional; settings: read-out: IZ
Staphylococcus aureus [11] = assay: Antibacterial activity against Staphylococcus aureus at 200 ug/disk after 24 hrs by agar disc-diffusion method; type: functional; settings: read-out: IZ
Bacillus subtilis [12] = assay: Antibacterial activity against Bacillus subtilis at 100 ug/disk after 24 hrs by agar disc-diffusion method; type: functional; settings: read-out: IZ
Bacillus subtilis [13] = assay: Antibacterial activity against Bacillus subtilis at 200 ug/disk after 24 hrs by agar disc-diffusion method; type: functional; settings: read-out: IZ
Escherichia coli [14] = assay: Antibacterial activity against Escherichia coli at 100 ug/disk after 24 hrs by agar disc-diffusion method; type: functional; settings: read-out: IZ
Escherichia coli [15] = assay: Antibacterial activity against Escherichia coli at 200 ug/disk after 24 hrs by agar disc-diffusion method; type: functional; settings: read-out: IZ
Klebsiella pneumoniae [16] = assay: Antibacterial activity against Klebsiella pneumoniae at 100 ug/disk after 24 hrs by agar disc-diffusion method; type: functional; settings: read-out: IZ
Klebsiella pneumoniae [17] = assay: Antibacterial activity against Klebsiella pneumoniae at 200 ug/disk after 24 hrs by agar disc-diffusion method; type: functional; settings: read-out: IZ
A549 = assay: Cytotoxicity against human A549 cells upto 100 uM after 72 hrs by MTT assay in presence of 10% fetal bovine serum; type: functional, cell-based
[18] = Cytotoxicity against mink CCL64 cells upto 100 uM after 72 hrs by MTT assay in presence of 0.2% fetal bovine serum; type: cell-based; settings: neovison vison, ccl64, 72 h
Staphylococcus aureus [19] = assay: Antibacterial activity against Staphylococcus aureus after 24 hrs by microdilution susceptibility method; type: functional
Bacillus subtilis [20] = assay: Antibacterial activity against Bacillus subtilis after 24 hrs by microdilution susceptibility method; type: functional
Escherichia coli [21] = assay: Antibacterial activity against Escherichia coli after 24 hrs by microdilution susceptibility method; type: functional
Klebsiella pneumoniae [22] = assay: Antibacterial activity against Klebsiella pneumoniae after […] by microdilution susceptibility method; type: functional

| SMILES | zone of inhibition at 100 µg/disc (Fusarium solani [1]) [mm] | zone of inhibition at 200 µg/disc (Fusarium solani [2]) [mm] | zone of inhibition at 100 µg/disc (Curvularia lunata [3]) [mm] | zone of inhibition at 200 µg/disc (Curvularia lunata [4]) [mm] | zone of inhibition at 100 µg/disc (Aspergillus niger [5]) [mm] | zone of inhibition at 200 µg/disc (Aspergillus niger [6]) [mm] | MIC (Fusarium solani [7]) [µg/mL] | MIC (Curvularia lunata [8]) [µg/mL] | MIC (Aspergillus niger [9]) [µg/mL] | zone of inhibition at 100 µg/disc (Staphylococcus aureus [10]) [mm] | zone of inhibition at 200 µg/disc (Staphylococcus aureus [11]) [mm] | zone of inhibition at 100 µg/disc (Bacillus subtilis [12]) [mm] | zone of inhibition at 200 µg/disc (Bacillus subtilis [13]) [mm] | zone of inhibition at 100 µg/disc (Escherichia coli [14]) [mm] | zone of inhibition at 200 µg/disc (Escherichia coli [15]) [mm] | zone of inhibition at 100 µg/disc (Klebsiella pneumoniae [16]) [mm] | zone of inhibition at 200 µg/disc (Klebsiella pneumoniae [17]) [mm] | other results |
| --- | --- | --- | --- | --- | --- | --- | --- | --- | --- | --- | --- | --- | --- | --- | --- | --- | --- | --- |
| CC(=O)N1CCN(c2ccc(OCC3COC(Cn4ccnc4)(c4ccc(Cl)cc4Cl)O3)cc2)CC1 (centres undefined) [KETOCONAZOLE] | 38 | 42 | 41 | 44 | 36 | 39 | 12.5 (≈ 23.5 µM) | 6.25 (≈ 11.8 µM) | 6.25 (≈ 11.8 µM) |  |  |  |  |  |  |  |  |  |
| O=S(=O)(Cc1nnc(S)o1)c1c[nH]cc1S(=O)(=O)c1ccc(Cl)cc1 | 18 | 21 | 17 | 20 | 15 | 18 |  |  |  | 14 | 17 | 14 | 18 | 10 | 12 | 11 | 13 |  |
| Cc1ccc(S(=O)(=O)c2c[nH]cc2S(=O)(=O)Cc2nnc(S)o2)cc1 | 16 | 19 | 15 | 18 | 17 | 21 |  |  |  | 11 | 14 | 12 | 16 | 11 | 14 | 11 | 13 |  |
| O=S(=O)(Cc1nnc(S)s1)c1c[nH]cc1S(=O)(=O)c1ccccc1 | 25 | 27 | 28 | 29 | 24 | 29 |  |  |  | 18 | 20 | 21 | 23 | 16 | 20 | 17 | 21 | Activity (A549): Not toxic; Activity [18]: Non-toxic |
| Nn1c(S)nnc1CS(=O)(=O)c1c[nH]cc1S(=O)(=O)c1ccc(Cl)cc1 | 35 | 40 | 38 | 41 | 34 | 37 | 50 (≈ 115 µM) | 12.5 (≈ 28.8 µM) | 25 (≈ 57.6 µM) | 32 | 35 | 34 | 38 | 23 | 25 | 26 | 28 | MIC (Staphylococcus aureus [19]): 12.5 µg/mL (≈ 28.8 µM); MIC (Bacillus subtilis [20]): 50 µg/mL (≈ 115 µM); MIC (Escherichia coli [21]): 50 µg/mL (≈ 115 µM); MIC (Klebsiella pneumoniae [22]): 50 µg/mL (≈ 115 µM) |

Source: ChEMBL document CHEMBL1158337, “Synthesis and bioassay of a new class of heterocycles pyrrolyl oxadiazoles/thiadiazoles/triazoles” (Eur J Med Chem, 2009)
